Assays:
PC3/PSC27 tumors [1] = assay: Preclinical treatment trial, PC3/PSC27 xenograft tumor volume; format: in vivo, mice
PC3-only tumors = assay: Preclinical treatment trial, PC3-only tumor volume; format: in vivo, mice; details: single agents; absence of stromal cells
Procedure: All experimental mouse experiments were performed strictly following the relevant regulations of the experimental animals. Immuno-deficient mice(NOD-SCID mice, ICR) (body weight about 25 g) aged 6-8 weeks were used for animal experiments related to the present patent. Stromal cells PSC27 and epithelial cells PC3 were mixed at a predetermined ratio of 1:4, and each graft contained 1.25×10^6 cells for tissue remodeling. The xenograft tumors were implanted into mice by subcutaneous transplantation, and the animals were euthanized 8 weeks after the end of the transplantation surgery. Tumor volume was calculated according to the following formula: V=(π/6)×((1+w)/2)^3 (V, volume; 1, length; w, width). In a preclinical treatment trial, subcutaneously transplanted mice were fed with a standard experimental diet, after 2 weeks chemotherapy drugs mitoxantrone (MIT, dose: 0.2 mg/kg) and/or Rutin (500 μl, dose: 10 mg/kg), Rapamycin (500 μl, dose: 10 mg/kg) via intraperitoneal administration. The time points are as follows: all three drugs were administered to mice on the first day of the third, fifth and seventh weeks. A total of 3 cycles of administration was carried out throughout the course of treatment, and each cycle lasted for 2 weeks. After the course of treatment, mouse tumors were harvested for volume measurement and histological analysis. […] The chemotherapy experiment ended at the end of the 8th week, and the mice were dissected immediately after sacrifice, and the xenograft tumors were collected and used for pathological system analysis.

[2] = test system: SASP factors, p16^INK4a, p21^CIP1; assay: qRT-PCR of SASP factors and senescence markers in tumor-bearing sites; format: in vivo, mice
Text: Varying expression levels of transcripts between the groups of a set of typical SASP molecules in tumor-bearing sites of mice according to the detection and analysis of fluorescent quantitative PCR (qRT-PCR). Data in each group is normalized for the sample with the lowest expression value within the group. IL6, IL8, AREG and ILla are included. […] Varying expression levels of transcripts between the groups of another set of typical SASP molecules in tumor-bearing sites of mice according to the detection and analysis of fluorescent quantitative PCR (qRT-PCR). Data in each group is normalized for the sample with the lowest expression value within the group. MMP1, MMP3, ANGPTL4 and SPINK1 are included. […] Varying expression levels of transcripts between the groups of a set of cellular senescence-specific biomarkers in tumor-bearing sites of mice according to the detection and analysis of fluorescent quantitative PCR (qRT-PCR). […] After the reaction was completed, the amplification of each gene was checked by software analysis, the corresponding threshold cycle number was derived, and the relative expression of each gene was calculated using the 2-ΔΔCt method. The peak and waveform of the melting curve was analyzed to determine whether the obtained amplification product was a specific single target fragment.

PC3/PSC27 tumors [3] = assay: SA-β-Gal staining of PC3/PSC27 tumor tissue; format: in vivo, mice; details: PC3/PSC27 tumor lesions
Procedure: Comparison of cell senescence in PC3/PSC27 tumor-bearing animal lesions in preclinical experiments. Representative pictures after SA-β-Gal staining. […] Senescence-associated β-galactosidase (SA-β-Gal) staining was performed following a previously reported procedure (Debacq-Chainiaux et al., 2009). Briefly, cells in culture dishes were washed with PBS and fixed at room temperature. Cells were fixed in 2% formaldehyde and 0.2% glutaraldehyde for 3 minutes. SA-β-Gal was used for staining with freshly prepared staining solution overnight at 37° C. Images were taken on the next day and the percentage of positive cells per unit area was calculated.

PC3/PSC27 xenografts = assay: DNA damage and apoptosis of cancer cells in PC3/PSC27 xenografts; format: in vivo, mice; details: tumors dissected 7 days after initiation of treatment
AREG = assay: ELISA of circulating serum SASP proteins; format: in vivo, mice; details: mouse serum
Procedure: (§1) FIG. 41. Circulating serum proteins of SASP typical factors in mice were examined using ELISA. Left, AREG. Right, EREG. […] The time points are as follows: all three drugs were administered to mice on the first day of the third, fifth and seventh weeks. A total of 3 cycles of administration was carried out throughout the course of treatment, and each cycle lasted for 2 weeks. After the course of treatment, mouse tumors were harvested for volume measurement and histological analysis. […] The chemotherapy experiment ended at the end of the 8th week, and the mice were dissected immediately after sacrifice, and the xenograft tumors were collected and used for pathological system analysis. […] For alternative chemotherapeutics, vincristine or vinblastine (dose: 1.0 mg/kg) is administered intraperitoneally.

EREG = assay: ELISA of circulating serum SASP proteins; format: in vivo, mice; details: mouse serum
Procedure: as §1

PSC27 cells [4] = assay: SA-β-Gal staining of PSC27 cells; format: cell-based, human; details: BLEO 50 μg/ml induces senescence, rutin tested on proliferating and BLEO-induced senescent cells
PSC27 cells [5] = assay: BrdU incorporation of PSC27 cells; format: cell-based, human; details: BLEO 50 μg/ml induces senescence, rutin tested on proliferating and BLEO-induced senescent cells
[6] = test system: ATM, TAK1, p38MAPK, PI3K/Akt/mTOR, IL8; assay: Immunoblot of DDR pathways and SASP expression in PSC27 cells; format: cell-based, human; details: for ATM activation / phosphorylation: BLEO-induced senescence, with or without rutin
PSC27 cells [7] = assay: ROS production in PSC27 cells with DCFH-DA; format: cell-based, human
Text: FIG. 23. Measurement of Reactive Oxygen Species (ROS) production in PSC27 cells under various conditions with DCFH-DA, a fluorescent reagent. Left, representative images, scale bar, […]; Right, comparative statistics.

[8] = test system: MDA-MB-231/HBF1203 tumors; assay: Breast cancer xenograft treatment trial; format: in vivo, mice; details: end of 8th week
IL8 (interleukin 8) = assay: NMA library screen: expression of SASP factor IL8 in PSC27 cells; format: cell-based, human; details: senescent PSC27 cells
SASP factors = assay: qRT-PCR of typical SASP factors in BLEO-induced senescent PSC27 cells; format: cell-based, human; details: IL6, IL8, IL1a, IL1β, CXCL3, MMP3, GM-CSF, 20-100 μM tested
PSC27 cells [9] = assay: RNA-seq / GSEA of PSC27 cells; format: cell-based, human
Procedure: Whole-transcriptome sequencing was performed on the primary human prostate stromal cell line PSC27 under different treatment conditions. Total RNA samples were obtained from stromal cells. Their integrity was verified by Bioanalyzer 2100 (Agilent), RNA was sequenced by Illumina HiSeq X10, and gene expression levels were quantified by software package […]/). Briefly, rRNA was depleted from RNA samples with the RiboMinus Eukaryote Kit (Qiagen, Valencia, CA, USA); and according to the manufacturer's instructions, TruSeq Stranded Total RNA Preparation Kits (Illumina, San Diego, CA, USA) was used to construct a strand-specific RNA-seq library before deep sequencing. Paired-end transcriptomic reads were mapped to a reference genome (GRCh38/hg38), and reference-annotation was performed from Gencode v27 using the Bowtie tool. Duplicate reads were identified using the picard Tools (1.98) script to mark duplicates (https://github.com/broadinstitute/picard), and only non-duplicate reads were retained. Reference splice junctions were provided by reference transcriptome (Ensembl Build 73). FPKM values were calculated with Cufflinks, and Cufflinks maximum likelihood estimation function was used to call differential gene expression. […] Next, Trim Galore (v0.3.0) (http://www.bioinformatics.babraham.ac.uk/projects/trim_galore/) was used to trim the reads, while the quality assessment was carried out by using FastQC (v0.10.0) (http://www.bioinformatics.bbsrc.ac.uk/projects/fastqc/). Subsequently, DAVID bioinformatics platform ( ) and ingenuity Pathways Analysis (IPA) program (http://www.ingenuity.com/index.html) were used. A preliminary analysis of the raw data was performed on a free online platform, Majorbio I-Sanger Cloud Platform (www.i-sanger.com) and the raw data were deposited in the NCBI Gene Expression Omnibus (GEO) database with access code GSE156448. Based on the data obtained from the preliminary analysis of RNA-seq, after analyzing and comparing each differentially expressed significant gene, the genes were sorted using the “wald statistics” obtained from DESeq2. GSEA was performed on the sorting lists of all planning gene sets available in MSigDB (http://software.broadinstitute.org/gsea/msigdb). DESeq2 independent filtering was based on the average of normalized read counts to select genes with very low expression levels. The SASP and GSEA signature were as described in our previous publication (Zhang et al., 2018a).

TRAF6-TAK1 interaction = assay: p-TAK1-mediated IP and immunoblot in PSC27 cells; format: cell-based, human; details: BLEO and/or rutin
[10] = target: ATM and TRAF6 interaction (Homo sapiens, UniProt Q13315+Q9Y4K3); assay: p-ATM-mediated IP and immunoblot in PSC27 cells; format: cell-based; details: BLEO and/or rutin
[11] = target: ATM and HIF1α interaction (Homo sapiens, UniProt Q13315+Q16665); assay: p-ATM-mediated IP and immunoblot in PSC27 cells; format: cell-based; details: BLEO and/or rutin
p65 and p50 (NF-κB) = assay: Immunoblot after separation of the nucleoplasm, PSC27 cells; format: cell-based, human
Procedure: Immunoblot analysis of cell lysates of PSC27 cells upon BELO and/or rutin intervention after separation of the nucleoplasm. C, cytoplasmic; N; Nuclear. Lamin A/C, loading control for nuclear proteins. GAPDH, loading control for cytoplasmic proteins. Cell lysate-derived proteins were separated using NuPAGE 4-12% Bis-Tris gel and transferred to nitrocellulose membranes (Life Technologies). The blot was blocked with 5% skimmed milk for 1 h at room temperature, incubated overnight at 4° C. with the desired primary antibody at the manufacturer's protocol concentration, and then incubated with horseradish peroxidase-conjugated secondary antibody (Santa Cruz) for 1 h. Blot signal detection was carried out with enhanced chemiluminescence (ECL) detection reagent (Millipore) according to the manufacturer's protocol, and ImageQuant LAS 400 Phospho-Imager (GE Healthcare) was used. As a standard protein marker, PageRuler Plus Prestained Protein Ladder (no. 26619) from Thermo Fisher Scientific was used by the inventors.

[12] = test system: PC3, DU145, M12 and LNCaP; assay: Proliferation, migration and invasion of prostate cancer cells cultured with PSC27 conditioned media; format: cell-based, human; details: rutin final concentration 100 μM
[13] = test system: PC3, DU145, M12 and LNCaP; assay: Drug resistance of prostate cancer cells cultured with PSC27 conditioned media; format: cell-based, human; details: rutin final concentration 100 μM
PC3 cells = assay: Dose-response curves of PC3 cells with PSC27-BLEO CM exposed to MIT; format: cell-based, human; details: PC3 exposed to MIT at 0.1-1.0 μM; rutin 100 μM
PC3/PSC27 tumors [14] = assay: Xenografts of PC3 with PSC27 sublines (naive, senescent, pretreated); format: in vivo; details: PC3 + PSC27^SEN recombinants, SCID mice, 8 weeks, p<0.0001
[15] = FIG. 14, senescence induction and rutin intervention, P<0.01, Fold change>4
[16] = senescent PSC27 upon rutin, 2-fold change of log 2-based, p<0.01

ATM and HIF1α interaction, sequence (Q13315 2-3056 limits assumed): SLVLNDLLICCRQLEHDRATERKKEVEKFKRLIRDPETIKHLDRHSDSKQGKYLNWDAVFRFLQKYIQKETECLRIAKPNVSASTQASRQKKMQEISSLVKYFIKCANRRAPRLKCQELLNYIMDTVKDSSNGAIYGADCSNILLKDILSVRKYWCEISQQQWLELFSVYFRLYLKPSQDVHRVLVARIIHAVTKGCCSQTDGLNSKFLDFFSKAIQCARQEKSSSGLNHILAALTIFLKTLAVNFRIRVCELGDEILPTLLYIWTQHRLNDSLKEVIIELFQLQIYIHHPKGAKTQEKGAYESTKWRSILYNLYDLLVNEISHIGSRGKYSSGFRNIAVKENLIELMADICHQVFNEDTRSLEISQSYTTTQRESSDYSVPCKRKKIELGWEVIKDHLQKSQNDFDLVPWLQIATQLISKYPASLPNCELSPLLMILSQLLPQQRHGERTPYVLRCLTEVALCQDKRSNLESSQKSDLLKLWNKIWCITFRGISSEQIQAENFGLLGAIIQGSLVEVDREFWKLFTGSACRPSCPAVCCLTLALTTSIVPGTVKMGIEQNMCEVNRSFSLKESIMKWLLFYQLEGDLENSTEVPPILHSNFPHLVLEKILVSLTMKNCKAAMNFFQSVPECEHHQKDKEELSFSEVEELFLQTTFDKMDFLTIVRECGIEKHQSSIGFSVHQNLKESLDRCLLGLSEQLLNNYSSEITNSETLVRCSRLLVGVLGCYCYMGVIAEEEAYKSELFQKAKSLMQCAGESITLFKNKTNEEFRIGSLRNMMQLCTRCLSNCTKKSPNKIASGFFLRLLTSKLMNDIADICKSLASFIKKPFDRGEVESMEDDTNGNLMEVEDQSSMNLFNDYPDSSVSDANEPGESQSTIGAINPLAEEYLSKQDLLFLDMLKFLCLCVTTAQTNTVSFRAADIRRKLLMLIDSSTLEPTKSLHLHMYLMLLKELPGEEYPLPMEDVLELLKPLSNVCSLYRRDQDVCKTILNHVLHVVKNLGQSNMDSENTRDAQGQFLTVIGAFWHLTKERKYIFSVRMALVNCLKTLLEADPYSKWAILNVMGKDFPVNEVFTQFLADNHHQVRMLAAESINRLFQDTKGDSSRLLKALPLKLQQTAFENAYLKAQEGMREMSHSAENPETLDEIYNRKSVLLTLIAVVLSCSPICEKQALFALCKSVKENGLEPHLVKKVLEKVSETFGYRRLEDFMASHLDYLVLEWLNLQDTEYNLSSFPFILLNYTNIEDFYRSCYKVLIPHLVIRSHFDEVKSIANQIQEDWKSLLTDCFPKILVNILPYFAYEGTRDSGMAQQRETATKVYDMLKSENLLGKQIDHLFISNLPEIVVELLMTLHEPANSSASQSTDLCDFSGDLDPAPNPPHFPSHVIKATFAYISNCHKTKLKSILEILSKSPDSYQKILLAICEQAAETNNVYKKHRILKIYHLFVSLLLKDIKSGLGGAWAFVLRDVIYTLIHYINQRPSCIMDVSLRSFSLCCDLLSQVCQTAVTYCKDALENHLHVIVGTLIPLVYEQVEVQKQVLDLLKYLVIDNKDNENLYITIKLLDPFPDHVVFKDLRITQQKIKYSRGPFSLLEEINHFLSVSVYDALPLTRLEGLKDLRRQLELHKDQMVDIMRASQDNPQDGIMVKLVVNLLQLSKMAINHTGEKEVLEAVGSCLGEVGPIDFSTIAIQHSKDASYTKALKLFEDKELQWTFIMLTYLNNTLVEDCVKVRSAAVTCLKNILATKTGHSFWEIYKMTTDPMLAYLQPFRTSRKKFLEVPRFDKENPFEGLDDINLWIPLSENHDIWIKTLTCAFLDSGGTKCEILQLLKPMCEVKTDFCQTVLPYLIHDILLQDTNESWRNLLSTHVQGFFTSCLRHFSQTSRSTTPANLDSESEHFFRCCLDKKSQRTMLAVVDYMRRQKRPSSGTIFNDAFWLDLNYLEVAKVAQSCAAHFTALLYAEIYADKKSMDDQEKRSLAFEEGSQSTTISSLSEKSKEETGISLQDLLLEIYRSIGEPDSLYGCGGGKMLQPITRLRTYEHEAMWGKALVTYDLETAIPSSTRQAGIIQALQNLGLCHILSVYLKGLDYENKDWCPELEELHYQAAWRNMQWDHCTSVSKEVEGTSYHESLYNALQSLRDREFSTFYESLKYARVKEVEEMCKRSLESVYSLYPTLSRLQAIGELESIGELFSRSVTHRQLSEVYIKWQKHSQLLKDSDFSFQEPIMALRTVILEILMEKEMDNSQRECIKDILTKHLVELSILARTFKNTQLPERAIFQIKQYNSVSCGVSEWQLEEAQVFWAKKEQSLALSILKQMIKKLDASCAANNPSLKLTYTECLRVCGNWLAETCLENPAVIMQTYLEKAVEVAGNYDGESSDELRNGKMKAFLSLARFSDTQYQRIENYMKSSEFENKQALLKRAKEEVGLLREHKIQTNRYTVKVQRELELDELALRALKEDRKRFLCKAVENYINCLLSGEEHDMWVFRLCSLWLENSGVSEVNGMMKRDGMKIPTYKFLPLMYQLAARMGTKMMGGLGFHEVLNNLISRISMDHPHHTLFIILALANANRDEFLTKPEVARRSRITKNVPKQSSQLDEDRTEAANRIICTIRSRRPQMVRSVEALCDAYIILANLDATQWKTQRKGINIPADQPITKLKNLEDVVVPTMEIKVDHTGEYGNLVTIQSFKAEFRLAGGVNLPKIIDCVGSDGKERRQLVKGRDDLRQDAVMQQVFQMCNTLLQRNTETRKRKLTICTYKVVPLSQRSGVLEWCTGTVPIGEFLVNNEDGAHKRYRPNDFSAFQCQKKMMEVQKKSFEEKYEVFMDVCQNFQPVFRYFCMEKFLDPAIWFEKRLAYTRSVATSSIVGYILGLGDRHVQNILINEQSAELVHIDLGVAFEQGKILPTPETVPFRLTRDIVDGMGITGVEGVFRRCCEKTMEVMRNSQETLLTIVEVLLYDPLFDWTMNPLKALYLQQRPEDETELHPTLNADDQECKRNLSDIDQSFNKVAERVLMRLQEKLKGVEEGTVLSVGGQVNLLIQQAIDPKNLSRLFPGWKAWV
ATM and HIF1α interaction, sequence (Q16665 whole entry): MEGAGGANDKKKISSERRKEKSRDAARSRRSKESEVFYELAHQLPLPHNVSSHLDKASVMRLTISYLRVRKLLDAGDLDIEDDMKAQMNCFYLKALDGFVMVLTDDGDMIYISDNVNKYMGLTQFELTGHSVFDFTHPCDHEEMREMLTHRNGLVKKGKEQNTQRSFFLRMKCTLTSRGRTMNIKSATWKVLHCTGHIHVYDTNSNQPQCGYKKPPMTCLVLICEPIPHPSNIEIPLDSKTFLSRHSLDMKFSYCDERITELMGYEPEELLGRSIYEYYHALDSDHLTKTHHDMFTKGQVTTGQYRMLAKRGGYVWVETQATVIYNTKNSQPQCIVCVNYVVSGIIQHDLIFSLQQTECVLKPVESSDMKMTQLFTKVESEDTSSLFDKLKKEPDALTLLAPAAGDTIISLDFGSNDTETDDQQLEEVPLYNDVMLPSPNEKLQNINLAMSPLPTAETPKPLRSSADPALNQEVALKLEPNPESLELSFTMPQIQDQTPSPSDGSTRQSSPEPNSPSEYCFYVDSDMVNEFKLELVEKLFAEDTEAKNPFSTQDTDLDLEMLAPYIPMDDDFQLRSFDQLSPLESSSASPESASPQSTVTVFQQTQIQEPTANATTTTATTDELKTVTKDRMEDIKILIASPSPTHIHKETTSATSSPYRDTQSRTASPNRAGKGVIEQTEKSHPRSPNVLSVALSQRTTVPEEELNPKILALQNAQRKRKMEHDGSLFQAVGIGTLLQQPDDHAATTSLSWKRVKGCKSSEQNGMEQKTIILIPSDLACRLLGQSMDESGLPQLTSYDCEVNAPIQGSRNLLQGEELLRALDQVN
ATM and TRAF6 interaction, sequence (Q13315 2-3056 limits assumed): as the sequence (Q13315 2-3056 limits assumed) above
ATM and TRAF6 interaction, sequence (Q9Y4K3 whole entry): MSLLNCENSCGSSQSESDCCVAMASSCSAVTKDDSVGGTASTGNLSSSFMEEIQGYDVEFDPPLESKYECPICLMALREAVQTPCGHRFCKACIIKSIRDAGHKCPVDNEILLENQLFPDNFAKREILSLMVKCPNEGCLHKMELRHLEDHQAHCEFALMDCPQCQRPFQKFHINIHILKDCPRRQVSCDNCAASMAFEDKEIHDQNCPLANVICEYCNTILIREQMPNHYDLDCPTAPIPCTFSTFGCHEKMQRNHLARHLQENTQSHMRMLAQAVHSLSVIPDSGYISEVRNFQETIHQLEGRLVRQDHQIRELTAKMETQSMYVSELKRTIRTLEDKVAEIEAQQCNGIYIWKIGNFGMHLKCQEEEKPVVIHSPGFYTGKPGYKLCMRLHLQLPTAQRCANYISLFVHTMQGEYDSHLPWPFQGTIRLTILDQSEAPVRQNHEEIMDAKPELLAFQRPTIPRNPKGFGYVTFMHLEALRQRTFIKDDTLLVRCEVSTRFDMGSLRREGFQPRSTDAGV

O=C1c2c(O)ccc(O)c2C(=O)c2c(NCCNCCO)ccc(NCCNCCO)c21 [MIT, mitoxantrone]
tumor sizes in contrast to placebo (PC3/PSC27 tumors [1]; 8-week regimen, MIT on 1st day of 3rd, 5th, 7th week): remarkably reduced tumor sizes | tumor volume decrease (PC3/PSC27 tumors [1]; PC3/PSC27 tumors, MIT alone, end of 8th week): 35.5% | effect on PC3-only tumors (PC3-only tumors): caused shrinkage | expression of typical SASP factors in tumors ([2]; IL6, IL8, AREG, IL1a, MMP1, MMP3, ANGPTL4, SPINK1): significant upregulation | typical senescence markers in tumors ([2]; p16^INK4a, p21^CIP1 and SA-β-GAL): induction | tissue senescence by SA-β-GAL staining (PC3/PSC27 tumors [3]): considerable tissue senescence | DNA damage (DDR) in cancer cells (PC3/PSC27 xenografts): substantial | apoptosis / cell death in cancer cells (PC3/PSC27 xenografts): substantial | circulating AREG level (AREG): elevated levels | circulating EREG level (EREG): elevated levels

bleomycin [reference compound]
SA-β-Gal staining (PSC27 cells [4]): elevated positivity | BrdU incorporation (PSC27 cells [5]): reduced BrdU incorporation | ATM activation / phosphorylation [6]: markedly activated | ROS levels in contrast to normal counterparts (PSC27 cells [7]; PSC27 cells after BLEO genotoxicity): remarkably elevated ROS levels

CC[C@]1(O)C[C@H]2CN(CCc3c([nH]c4ccccc34)[C@@](C(=O)OC)(c3cc4c(cc3OC)N(C=O)[C@H]3[C@@](O)(C(=O)OC)[C@H](OC(C)=O)[C@]5(CC)C=CCN6CC[C@]43[C@@H]65)C2)C1 [VIN, vincristine]
outcome of combination of the chemotherapeutic drug with rutin and rapamycin [8]: did not exhibit the characteristics of effective drug combination therapy

CC[C@]1(O)C[C@H]2CN(CCc3c([nH]c4ccccc34)[C@@](C(=O)OC)(c3cc4c(cc3OC)N(C=O)[C@H]3[C@@](O)(C(=O)OC)[C@H](OC(C)=O)[C@]5(CC)C=CCN6CC[C@]43[C@@H]65)C2)C1 [vincristine]
benefit of the chemotherapeutic drug from combined use of rutin and/or rapamycin (PC3/PSC27 tumors [1]; PC3 and PC3/PSC27 tumors): did not show such benefits

CO[C@H]1C[C@@H]2CC[C@@H](C)[C@@](O)(O2)C(=O)C(=O)N2CCCC[C@H]2C(=O)O[C@H]([C@H](C)C[C@@H]2CC[C@@H](O)[C@H](OC)C2)CC(=O)[C@H](C)/C=C(\C)[C@@H](O)[C@@H](OC)C(=O)[C@H](C)C[C@H](C)/C=C/C=C/C=C/1C [rapamycin]
effect on PC3-only tumors (PC3-only tumors): did not show a remarkable effect

COc1cccc2c1C(=O)c1c(O)c3c(c(O)c1C2=O)C[C@@](O)(C(=O)CO)C[C@@H]3O[C@H]1C[C@H](N)[C@H](O)[C@H](C)O1 [doxorubicin]
outcome of combination of the chemotherapeutic drug with rutin and rapamycin [8]: largely reproduced the results of preclinical experiments performed with PCa system

C[C@@H]1O[C@@H](OC[C@H]2O[C@@H](Oc3c(-c4ccc(O)c(O)c4)oc4cc(O)cc(O)c4c3=O)[C@H](O)[C@@H](O)[C@@H]2O)[C@H](O)[C@H](O)[C@H]1O [rutin]
SA-β-Gal staining (PSC27 cells [4]): remained largely unchanged | BrdU incorporation (PSC27 cells [5]): remained largely unchanged | expression of interleukin 8 (IL8), a hallmark SASP factor (senomorphic potential) (IL8 (interleukin 8)): prominent efficacy in downregulating | concentration with the most optimal effects in restraining expression of typical SASP components (SASP factors): 100 µM | genes down-regulated (PSC27 cells [9]; [15]): 3733 genes | genes up-regulated (PSC27 cells [9]; [15]): 886 genes | transcriptome-wide expression of SASP factors (PSC27 cells [9]; RNA-seq, senescent PSC27 cells treated with rutin): most of the SASP factors were indeed downregulated | GSEA SASP signature (PSC27 cells [9]; senescent PSC27 cells treated with rutin): specifically and significantly inhibited SASP | transcripts downregulated (PSC27 cells [9]; [16]): 3733 transcripts | transcripts significantly modified (PSC27 cells [9]; [16]): 4619 transcripts | transcripts upregulated (PSC27 cells [9]; [16]): 886 transcripts | ATM activation / phosphorylation [6]: remained largely unaffected | TAK1 phosphorylation, p38MAPK activation, PI3K/Akt/mTOR activation and IL8 upregulation after BLEO ([6]; in the presence of rutin): generally diminished | TAK1 activation and TRAF6-TAK1 interaction (TRAF6-TAK1 interaction): considerably restrained | interaction of ATM and TRAF6 [10]: significantly weakens | mutual interaction between ATM and HIF1α [11]: subject to interruption | cytoplasm-to-nucleus translocation of p65 and p50 upon cellular senescence (p65 and p50 (NF-κB)): largely abolished | ROS generation by senescent cells (PSC27 cells [7]; PSC27, BLEO-induced senescent): significantly suppressed | production of ROS in proliferating cells (PSC27 cells [7]; PSC27, proliferating): did not change | gain-of-functions (proliferation, migration, invasion; malignancy) conferred by CM from senescent PSC27 cells [12]: almost completely disappeared | counteraction of the increase in cancer cell viability upon senescent stromal cell-derived CM [13]: about 80% | cancer resistance conferred by the CM of senescent stromal cells (PC3 cells): remarkably downregulate cancer resistance | tumor volumes after pretreatment of PSC27^SEN cells in vitro (PC3/PSC27 tumors [14]): considerably reduced tumor volumes | effect on PC3-only tumors (PC3-only tumors): did not show a remarkable effect | tissue senescence by SA-β-GAL staining (PC3/PSC27 tumors [3]): neither promote nor suppress senescence
